The values below are quoted from earlier work in EP4437048B1, “ENERGY CURABLE INK, COATING AND PRIMER COMPOSITIONS CONTAINING HIGHLY ALKOXYLATED GLYCEROL ACRYLATES FOR RETORT PACKAGING APPLICATIONS” (Sun Chemical B.V., priority 2022, dated 2024).

For the data set the following is noted: specific migration limit of the acrylate (Table 7).

Consider `C=CC(=O)OCC(CC)(COCC(CC)(COC(=O)C=C)COC(=O)C=C)COC(=O)C=C` [Di-TMPTA], for which the SML was 10 ppb.
